Experimental data taken from publication PMC6466480 (Journal of Medicinal Chemistry, 2019).

How the values were obtained:
human D3R = human D3R (Homo sapiens, UniProt P35462); test: β-Arrestin recruitment assay; assay type: cell-based; details: agonist mode; percentage of the maximum dopamine response; CHO-K1
D4R = details: initially characterized as a full agonist; cited from earlier work
human D4R = molecular target: T1, human D4R (Homo sapiens, UniProt P21917); test: cAMP inhibition assay; assay type: cell-based; details: read-out: Emax at D4R (partial agonist)
T1 sequence (P21917 1-419): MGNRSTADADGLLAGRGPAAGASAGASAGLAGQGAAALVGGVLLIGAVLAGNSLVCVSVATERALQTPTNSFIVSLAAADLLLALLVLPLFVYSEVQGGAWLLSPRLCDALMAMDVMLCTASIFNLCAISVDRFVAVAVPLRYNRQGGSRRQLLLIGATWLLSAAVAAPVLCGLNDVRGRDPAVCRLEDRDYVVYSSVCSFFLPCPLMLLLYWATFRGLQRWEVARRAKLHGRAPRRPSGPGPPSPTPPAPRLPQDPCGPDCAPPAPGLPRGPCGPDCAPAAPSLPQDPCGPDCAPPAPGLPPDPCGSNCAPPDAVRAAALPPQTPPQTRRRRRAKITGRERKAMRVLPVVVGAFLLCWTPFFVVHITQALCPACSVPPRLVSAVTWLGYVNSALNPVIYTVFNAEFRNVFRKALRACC

human D3R, sequence (P35462 whole entry): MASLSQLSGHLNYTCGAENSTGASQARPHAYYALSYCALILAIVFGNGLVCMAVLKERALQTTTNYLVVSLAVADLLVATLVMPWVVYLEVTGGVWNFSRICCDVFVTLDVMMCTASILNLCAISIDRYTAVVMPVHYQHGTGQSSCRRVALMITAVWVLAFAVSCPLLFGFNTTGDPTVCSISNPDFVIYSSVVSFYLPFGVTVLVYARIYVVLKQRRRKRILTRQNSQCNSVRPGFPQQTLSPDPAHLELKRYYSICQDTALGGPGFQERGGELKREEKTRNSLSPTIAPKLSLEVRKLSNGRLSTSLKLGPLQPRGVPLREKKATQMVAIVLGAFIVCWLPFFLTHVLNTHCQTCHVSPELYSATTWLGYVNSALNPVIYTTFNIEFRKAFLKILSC

- D3R efficacy β-arr Emax (human D3R): very low potency and efficacy
- Emax (human D4R): 23 to 62%
SMILES: Cc1cccc(NC(=O)CN2CCC(c3ccccn3)CC2)c1 [Compound 1, 2-(4-(pyridin-2-yl)piperidin-1-yl)-N-(m-tolyl)acetamide]
- intrinsic activity at D4R (D4R): 83%
